One test deals with acetylcholinesterase (Electrophorus electricus, UniProt O42275). The test is described as follows: Colorimetric test ticket, acetylcholinesterase strip. Type of test: biochemical. The note with it: 1 ppm; positive result, lack of blue color.
Another test deals with T1, AChE from eel (Electrophorus electricus, UniProt O42275).
T1 construct: purchased Sigma-Aldrich
Put plainly: AChE test ticket, fluorescence (NMI substrate), reader hue ratio. The test is classed as biochemical. As for the experimental part: N-methyl indoxyl (NMI) acetate (100 mg, Sigma-Aldrich) was dissolved in 100 mil, 100% USP ethyl alcohol (Sigma-Aldrich) for a final concentration of […]. Strips of porous matrix Surewick Sample Pad C248 (Millipore) were saturated with this NMI solution and dried at 45° C. for two hours. The strips were then removed from the oven and stored in a resealable plastic bag with desiccant.
AChE from eel (Sigma-Aldrich) was dissolved to a final concentration of 2.2 units/mL in a buffer containing 10 mM potassium phosphate, 5% sucrose and 0.5% BSA at pH=7.4 and passed through a 0.22 μm filter. Strips of Millipore GFCP20300 glass fiber were pretreated by soaking with a mixture of 2% sucrose and 2% Triton in 6.25 mM borate buffer and dried at 45° C. in an oven for 2 hours. These glass fiber strips were then saturated with the solution of AChE and dried for 2 hours at 45° C. The strips were then removed from the oven and stored in a resealable plastic bag with desiccant.
To an adhesive-coated plastic backing, card (G&L) cut to 3×27 cm, is attached the fluid transfer membrane (nitrocellulose membrane) at a distance of 10 mm from the card bottom edge. The enzyme sample pad is attached flush to the bottom edge of the backing card overlapping the nitrocellulose membrane strip. The substrate pad is then attached flush to the other edge of the backing card (top edge), overlapping the nitrocellulose membrane. The assembled cards are then cut into 6.75 mm wide×16 mm long test strips using an automated guillotine cutter.
A stock solution (1 mg/mL) of the carbamate pesticide, oxamyl (Supelco), was prepared in methanol, then serially diluted in purified water to a final concentration of 0.1 mg/L for use as a test sample. […]
All tickets were then allowed to run for 15 minutes, then were inserted into a reader comprised of low light color cameras, 400 nm UV LED and custom color analysis software (FIG. 6). The reader calculates a ratio of the hue measured in the test sample site at the substrate pad to the hue measured in the negative control site at the substrate pad. […]

Marks after values point to notes of the source that are not given here.

T1 sequence (O42275 24-633): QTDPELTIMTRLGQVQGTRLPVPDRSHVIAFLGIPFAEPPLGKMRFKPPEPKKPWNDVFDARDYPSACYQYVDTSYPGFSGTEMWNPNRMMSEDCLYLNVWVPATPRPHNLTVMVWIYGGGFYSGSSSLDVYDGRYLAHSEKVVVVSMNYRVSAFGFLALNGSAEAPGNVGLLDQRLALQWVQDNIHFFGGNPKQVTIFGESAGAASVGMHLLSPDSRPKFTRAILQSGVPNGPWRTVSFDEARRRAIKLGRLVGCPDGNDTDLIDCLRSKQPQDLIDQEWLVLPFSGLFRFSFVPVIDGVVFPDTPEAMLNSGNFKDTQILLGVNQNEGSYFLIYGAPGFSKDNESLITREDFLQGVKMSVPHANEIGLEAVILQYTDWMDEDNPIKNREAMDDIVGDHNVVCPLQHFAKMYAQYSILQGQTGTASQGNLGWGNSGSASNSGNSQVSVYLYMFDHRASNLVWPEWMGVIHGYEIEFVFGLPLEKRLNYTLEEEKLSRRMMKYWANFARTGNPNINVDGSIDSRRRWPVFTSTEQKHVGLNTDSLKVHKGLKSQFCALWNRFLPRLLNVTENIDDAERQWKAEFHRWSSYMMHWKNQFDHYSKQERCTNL
Chain of acetylcholinesterase (O42275 24-633): as above

`CNC(=O)O/N=C(\SC)C(=O)N(C)C` [Oxamyl, oxamyl]: the “Result of colorimetric test ticket (FIG. 14 C)” value at acetylcholinesterase was “inhibits acetylcholinesterase”. Further, the “Reactivity with AChE” value on AChE from eel is “reacts strongly with AChE”. Further, at AChE from eel (tested with AChE, 0.1 mg/L in purified water, test sample well:control well, 15 minutes run), the Fluorescence hue ratio is reported as 2.82*. In addition, the Result entry at AChE from eel (tested with AChE, 0.1 mg/L, hue ratio cutoff of 1.25) was “Positive (a ratio greater than 1.25 is considered positive)”.

Values taken from patent publication US9850522B2, “One-step rapid assay for the detection of inhibitors of enzymes” (priority 2013, dated 2017).
